Results from article PMC4805781 (International Journal for Parasitology: Drugs and Drug …, 2016).

Legend:
[1] = tested on: P. falciparum HB3 infected cultures; assay: High content image-based assay of merozoite egress and invasion; assay type: cell-based, Plasmodium falciparum; settings: HB3, treated at 42 hpi, 10 μM, 24 h
[2] = Microsomal stability; assay type: in vitro ADME; settings: mouse, liver microsomes
[3] = tested on: Synchronized P. falciparum Dd2 cultures; assay: Flow cytometric profiling of inhibition, YOYO-1 staining; assay type: cell-based, Plasmodium falciparum; settings: Dd2, treated at 6 hpi ring stage, 5×EC50, sampled at 12 h intervals
[4] = Double-sink parallel artificial membrane permeability assay; assay type: in vitro ADME

For `CC(C)C[C@H](NC(=O)[C@H]1O[C@@H]1C(=O)O)C(=O)NCCCCN=C(N)N` [E-64], the “Effect on merozoite egress and invasion” value [1] was “blocked egress”.

Work on `C[C@]12CC[C@H]3[C@@H](CCC4=CC(=O)CC[C@@]43C)[C@@H]1CC[C@@H]2O` [Testosterone] yielded a remaining at 1 h [2] of 26.1%.

With `C[C@@H]1CC[C@H]2[C@@H](C)C(=O)O[C@@H]3O[C@@]4(C)CC[C@@H]1[C@]32OO4` [artemisinin] the “Effect on merozoite egress and invasion” value [1] was “did not block merozoite egress or invasion” and the “Effect on parasite maturation by flow cytometry (DNA content)” value [3] was “maturation is blocked”.

In the case of `COCCc1ccc(OCC(O)CNC(C)C)cc1` (stereo not shown) [metoprolol], the “Permeability pH 5.0 (−logPe)” value ([4]; pH 5.0) was > 5.4 −logPe, the “Permeability pH 6.2 (−logPe)” value ([4]; pH 6.2) was 4.4 −logPe and the “Permeability pH 7.4 (−logPe)” value ([4]; pH 7.4) was 3.6 −logPe.
